Laboratory results published in US20020028836A1, “Potassium channel openers” (priority 2000, published 2002).
Like-named read-outs stand apart in the source and are kept apart here.

Tested on: tissue strips obtained from Landrace pig bladders
Assay: Functional potassium channel opening activity in isolated bladder strips (field-stimulated twitch)
Details: for Index: ED50 for P1075 divided by ED50 for the test agonist in a given tissue, averaged; for EC50: amount of agent necessary to cause 50% of the agent's maximal response, read-out: ED50 (the source's name); for Efficacy (% P1075) / Emax: maximal efficacy relative to P1075, field stimulation 0.05 Hz, 0.5 ms, 20 volts
Procedure: Compounds were evaluated for functional potassium channel opening activity using tissue strips obtained from Landrace pig bladders.
Landrace pig bladders were obtained from female Landrace pigs of 9-30 kg. Landrace pigs were euthanized with an intraperitoneal injection of pentobarbital solution, Somlethal®, J. A. Webster Inc., Sterling, Mass. The entire bladder was removed and immediately placed into Krebs Ringer bicarbonate solution (composition, mM: NaCl, 120; NaHCO3, 20; dextrose, 11; KCl, 4.7; CaCl2, 2.5; MgSO4, 1.5; KH2PO4, 1.2; K2EDTA, 0.01, equilibrated with 5% CO2/95% O2pH 7.4 at 37° C.). Propranolol (0.004 mM) was included in all of the assays to block β-adrenoceptors. The trigonal and dome portions were discarded. Strips 3-5 mm wide and 20 mm long were prepared from the remaining tissue cut in a circular fashion. The mucosal layer was removed. One end was fixed to a stationary glass rod and the other to a Grass FT03 transducer at a basal preload of 1.0 gram. Two parallel platinum electrodes were included in the stationary glass rod to provide field stimulation of 0.05 Hz, 0.5 milli-seconds at 20 volts. This low frequency stimulation produced a stable twitch response of 100-500 centigrams. Tissues were allowed to equilibrate for at least 60 minutes and primed with 80 mM KCl. A control concentration response curve (cumulative) was generated for each tissue using the potassium channel opener P1075 as the control agonist. […] After a 60 minute rinsing period, a concentration response curve (cumulative) was generated for the test agonist in the same fashion as that used for the control agonist P1075. The maximal efficacy of each compound (expressed as % relative to P1075) is reported. The amount of agent necessary to cause 50% of the agent's maximal response (ED50) was calculated using “ALLFIT” (DeLean et al., Am. J. Physiol., 235, E97 (1980)), hereby incorporated by reference. Agonist potencies were also expressed as an index relative to P1075. The index was calculated by dividing the ED50 for P1075 by the ED50 for the test agonist in a given tissue. Each tissue was used for only one test agonist, and the indices obtained from each tissue were averaged to provide an average index of potency.

SMILES	EC50	EC50 (Sus scrofa)	Index	Efficacy (% P1075)	Emax (Sus scrofa)
CC(Cl)(Cl)C(NC(=O)c1ccc(Cl)cc1)NC(=NC#N)Nc1cccnc1 (single isomer, unassigned; (+)) [Example 118, (+) 4-chloro-N-(2,2-dichloro-1-{[(cyanoimino)(3-pyridinylamino)methyl]amino}propyl)benzamide]	22 µM		0.006	69 % P1075	
CC(C)(C)CC(NC(=O)c1ccc(Cl)cc1)NC(=N[N+](=O)[O-])Nc1cccnc1 (single isomer, unassigned; (+)) [Example 125, (+) 4-chloro-N-(1-{[(nitroimino)(3-pyridinylamino)methyl]amino}-3,3-dimethylbutyl)benzamide]	9.2 µM		0.030	92 % P1075	
CC(C)(C)CC(NC(=O)c1ccc(Cl)cc1)NC(=NS(=O)(=O)C(F)(F)F)Nc1cccnc1 (single isomer, unassigned; (+)) [Example 186, (+) 4-chloro-N-{3,3-dimethyl-1-[((3-pyridinylamino){[(trifluoromethyl)sulfonyl]imino}methyl)amino]butyl}benzamide]	1.2 µM		2.1	66 % P1075	
CC(Cl)(Cl)C(NC(=O)c1ccc(Cl)cc1)NC(=NC#N)Nc1cccnc1 (single isomer, unassigned; (-)) [Example 117, (−) 4-chloro-N-(2,2-dichloro-1-{[(cyanoimino)(3-pyridinylamino)methyl]amino}propyl)benzamide]	5.8 µM		0.030	79 % P1075	
CC(C)(C)CC(NC(=O)c1ccc(Cl)cc1)NC(=NS(=O)(=O)C(F)(F)F)Nc1cccnc1 (single isomer, unassigned; (-)) [Example 187, (−) 4-chloro-N-{3,3-dimethyl-1-[((3-pyridinylamino){[(trifluoromethyl)sulfonyl]imino}methyl)amino]butyl}benzamide]	7.8 µM		0.077	52 % P1075	
CC(C)(C)C(NC(=O)c1ccc(Cl)cc1)NC(=NC#N)Nc1cnc2ccccc2c1 (stereo not drawn) [Example 83, 4-chloro-N-(1-{[(cyanoimino)(3-guinolinylamino)methyl]amino}-2,2-dimethylpropyl)benzamide]	2.8 µM		0.031	62 % P1075	
CC(C)(C)C(NC(=O)c1cc(F)cc(F)c1)NC(=NC#N)Nc1cccnc1 (stereo not drawn) [Example 110, N-(1-{[(cyanoimino)(3-pyridinylamino)methyl]amino}-2,2-dimethylpropyl)-3,5-difluorobenzamide]		6.2 µM	0.017		61%
CC(Cl)(Cl)C(NC(=O)c1ccc(Cl)cc1)NC(=NC#N)Nc1cccnc1 (stereo not drawn) [Example 116, 4-chloro-N-(2,2-dichloro-1-{[(cyanoimino)(3-pyridinylamino)methyl]amino}propyl)benzamide]	3.3 µM		0.028	94 % P1075	
CC(Cl)(Cl)C(NC(=O)c1cc(F)cc(F)c1)NC(=NC#N)Nc1cccnc1 (stereo not drawn) [Example 120, N-(2,2-dichloro-1-{[(cyanoimino)(3-pyridinylamino)methyl]amino}propyl)-3,5-difluorobenzamide]		7.5 µM	0.017		84%
N#CN=C(Nc1cccnc1)NC(NC(=O)c1ccc(Cl)cc1)C(F)(F)C(F)(F)F (stereo not drawn) [Example 121, 4-chloro-N-(1-{[(cyanoimino)(3-pyridinylamino)methyl]amino}-2,2,3,3,3-pentafluoropropyl)benzamide]		4.8 µM	0.044		89%
CC(C)(C)CC(NC(=O)c1ccc(Cl)cc1)NC(=NS(=O)(=O)C(F)(F)F)Nc1cccnc1 (stereo not drawn) [Example 142, 4-chloro-N-{3,3-dimethyl-1-[((3-pyridinylamino){[(trifluoromethyl)sulfonyl]imino}methyl)amino]butyl}benzamide]	0.6 µM		0.270	44 % P1075	
CC(Cl)(Cl)C(NC(=O)c1ccc(Cl)cc1)NC(=NC#N)Nc1cccnc1Cl (stereo not drawn) [Example 168, 4-chloro-N-(2,2-dichloro-1-{[[(2-chloro-3-pyridinyl)amino](cyanoimino)methyl]amino}propyl)benzamide]		0.89 µM	0.064		92%
CC(Cl)(Cl)C(NC(=O)c1ccc(Cl)cc1)NC(=NC#N)Nc1ccccc1F (stereo not drawn) [Example 175, 4-chloro-N-(2,2-dichloro-1-{[(cyanoimino)(2-fluoroanilino)methyl]amino}propyl)benzamide]		1.5 µM	0.148		54%

More lines, main results first:

EC50	EC50 (Sus scrofa)	SMILES	Index	Efficacy (% P1075)	Emax (Sus scrofa)
9 µM		CC(Cl)(Cl)C(NC(=O)c1ccc(Cl)cc1)NC(=NC#N)Nc1ccc(Cl)nc1 (single isomer, unassigned; (+)) [Example 162, (+) 4-chloro-N-(2,2-dichloro-1-{[[(6-chloro-3-pyridinyl)amino](cyanoimino)methyl]amino}propyl)benzamide]	0.025	87 % P1075	
4 µM		CC(Cl)(Cl)C(NC(=O)c1ccc(Cl)cc1)NC(=NC#N)Nc1ccc(Cl)nc1 (single isomer, unassigned; (-)) [Example 161, (−) 4-chloro-N-(2,2-dichloro-1-{[[(6-chloro-3-pyridinyl)amino](cyanoimino)methyl]amino}propyl)benzamide]	0.108	93 % P1075	
	3.4 µM	CC(Cl)(Cl)C(NC(=O)c1cccc(Cl)c1)NC(=NC#N)Nc1cccnc1 (stereo not drawn) [Example 119, 3-chloro-N-(2,2-dichloro-1-{[(cyanoimino)(3-pyridinylamino)methyl]amino}propyl)benzamide]	0.939		78%
	2.5 µM	CC(Cl)(Cl)C(NC(=O)c1cc(F)cc(F)c1)NC(=NC#N)Nc1ccc(C(F)(F)F)nc1 (stereo not drawn) [Example 155, N-{2,2-dichloro-1-[((cyanoimino){[6-(trifluoromethyl)-3-pyridinyl]amino}methyl)amino]propyl}-3,5-difluorobenzamide]	0.022		95%
	4 µM	CC(Cl)(Cl)C(NC(=O)c1cccc(F)c1)NC(=NC#N)Nc1ccc(Cl)nc1 (stereo not drawn) [Example 156, N-(2,2-dichloro-1-{[[(6-chloro-3-pyridinyl)amino](cyanoimino)methyl]amino}propyl)-3-fluorobenzamide]	0.048		93%
	4.8 µM	CC(Cl)(Cl)C(NC(=O)c1ccc(Cl)cc1)NC(=NC#N)Nc1ccc(C(F)(F)F)nc1 (stereo not drawn) [Example 158, 4-chloro-N-{2,2-dichloro-1-[((cyanoimino){[6-(trifluoromethyl)-3-pyridinyl]amino}methyl)amino]propyl}benzamide]	0.061		92%
	7.9 µM	CC(Cl)(Cl)C(NC(=O)c1cccc(Cl)c1)NC(=NC#N)Nc1ccc(C(F)(F)F)nc1 (stereo not drawn) [Example 159, 3-chloro-N-{2,2-dichloro-1-[((cyanoimino){[6-(trifluoromethyl)-3-pyridinyl]amino}methyl)amino]propyl}benzamide]	0.013		92%
	5 µM	CC(Cl)(Cl)C(NC(=O)c1cccc(Cl)c1)NC(=NC#N)Nc1cccc(F)c1 (stereo not drawn) [Example 169, 3-chloro-N-(2,2-dichloro-1-{[(cyanoimino)(3-fluoroanilino)methyl]amino}propyl)benzamide]	0.231		75%
	4.2 µM	Cc1cccc(C(=O)NC(NC(=NC#N)Nc2ccc(Cl)nc2)C(C)(Cl)Cl)c1 (stereo not drawn) [Example 170, N-(2,2-dichloro-1-{[[(6-chloro-3-pyridinyl)amino](cyanoimino)methyl]amino}propyl)-3-methylbenzamide]	0.012		100%
	0.49 µM	CC(Cl)(Cl)C(NC(=O)c1cccc(Cl)c1)NC(=NC#N)Nc1ccccc1F (stereo not drawn) [Example 172, 3-chloro-N-(2,2-dichloro-1-{[(cyanoimino)(2-fluoroanilino)methyl]amino}propyl)benzamide]	0.507		53%
	1.2 µM	COc1ncccc1NC(=NC#N)NC(NC(=O)c1cccc(Cl)c1)C(C)(Cl)Cl (stereo not drawn) [Example 174, 3-chloro-N-[2,2-dichloro-1-({(cyanoimino)[(2-methoxy-3-pyridinyl)amino]methyl}amino)propyl]benzamide]	2.2		34%
